Measured values as given in the supplement of paper PMC11061612.

What was measured:
[1] = tested on: NCI-H1993 (Lung Adenocarcinoma); assay: Bliss excess, mean over the matrix (fraction); higher = more synergy
Outline: (§1)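 Cell lines grown in DMEM/F12 or RPMI with 10% FBS were plated in 1536-well plates and held 24 hours at 37°C, 5% CO2 before 72 hours of exposure to two-drug dose matrices, with DMSO typically at 0.2%. CellTiter-Glo 2.0 luminescence gave viability, which was converted to inhibition. Vehicle wells were set to 0 and blank wells to 1. Combination Emax is the second-highest inhibition in the matrix, and Bliss excess is the observed combination effect minus the expected EA + EB − EA·EB, where EA and EB are the single-agent effects.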

[2] = tested on: ME-180 (Cervical Carcinoma); assay: as above
Outline: as §1

[3] = tested on: NCI-H1355 (Lung Adenocarcinoma); assay: as above
Outline: as §1

[4] = tested on: SK-N-AS (Neuroblastoma); assay: as above
Outline: as §1

[5] = tested on: COLO-679 (Melanoma); assay: as above
Outline: as §1

[6] = tested on: SW872 (Other Solid Carcinomas); assay: as above
Outline: as §1

[7] = tested on: MV-4-11 (Acute Myeloid Leukemia); assay: as above
Outline: as §1

[8] = tested on: EFO-21 (Ovarian Carcinoma); assay: as above
Outline: as §1

[9] = tested on: Mo-T (Other Blood Carcinomas); assay: as above
Outline: as §1

[10] = tested on: KGN (Other Solid Carcinomas); assay: as above
Outline: as §1

[11] = tested on: DU-145 (Prostate Carcinoma); assay: as above
Outline: as §1

[12] = tested on: Ca-Ski (Cervical Carcinoma); assay: as above
Outline: as §1

[13] = tested on: MOG-G-UVW (Low Grade Glioma); assay: as above
Outline: as §1

[14] = tested on: SKN (Other Solid Carcinomas); assay: as above
Outline: as §1

[15] = tested on: MOLT-4 (T-Lymphoblastic Leukemia); assay: as above
Outline: as §1

[16] = tested on: KMRC-1 (Kidney Carcinoma); assay: as above
Outline: as §1

[17] = tested on: NCI-H1993 (Lung Adenocarcinoma); assay: combination Emax (second highest fraction inhibited in the dose matrix, 72 h); higher = more inhibition; extreme values may be limits of the assay
Outline: as §1

[18] = tested on: ML-2 (Acute Myeloid Leukemia); assay: as above
Outline: as §1

[19] = tested on: SK-N-AS (Neuroblastoma); assay: as above
Outline: as §1

[20] = tested on: Ca-Ski (Cervical Carcinoma); assay: as above
Outline: as §1
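Throughout, for Bliss excess, mean over the matrix: after 72 h of two-drug dosing.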

Row | SMILES | Bliss excess [1] | Bliss excess [2] | Bliss excess [3] | Bliss excess [4] | Bliss excess [5] | Bliss excess [6] | Bliss excess [7] | Bliss excess [8] | Bliss excess [9] | Bliss excess [10] | Bliss excess [11] | Bliss excess [12] | Bliss excess [13] | Bliss excess [14] | Bliss excess [15] | Bliss excess [16] | combination Emax [17] | combination Emax [18] | combination Emax [19] | combination Emax [20]
1 | CN(CCO)CC[C@H](CSc1ccccc1)Nc1ccc(S(=O)(=O)NC(=O)c2ccc(N3CCC([C@@H](O)c4ccccc4-c4ccc(Cl)cc4)CC3)cc2)cc1S(=O)(=O)C(F)(F)F [AZD4320] + CC(=O)O[C@H]1C(=O)[C@@]2(C)[C@H]([C@H](OC(=O)c3ccccc3)[C@]3(O)C[C@H](OC(=O)[C@H](O)[C@@H](NC(=O)c4ccccc4)c4ccccc4)C(C)=C1C3(C)C)[C@]1(OC(C)=O)CO[C@@H]1C[C@@H]2O [Paclitaxel] (first compound max 1 µM, 7x7, partner max 3 µM) | 0.0851 | 0.139 | 0.0513 | 0.0584 | -0.0012 | -0.0047 | 0.0055 | 0.0978 | 0.163 | 0.0039 | 0.0406 | 0.114 | -0.0104 | 0.13 | 0.0099 | 0.0095 | 0.984 | 1 | 0.884 | 1
2 | COc1cc2ncnc(Nc3ccc(F)c(Cl)c3)c2cc1OCCCN1CCOCC1 [Gefitinib] + CC(C)n1c(=O)n(C)c2cnc3cc(F)c(-c4ccc(OCCCN5CCCCC5)nc4)cc3c21 [AZD1390] (first compound max 10 µM, 7x7, partner max 0.3 µM) | -0.0506 | -0.0413 | -0.039 | -0.0588 | -0.0901 | -0.025 | -0.0534 | -0.0875 | -0.0475 | -0.0632 | -0.06 | -0.0785 | -0.0401 | -0.0548 | 0.009 | -0.0702 | 0.349 | 0.168 | 0.0247 | 0.292
3 | CN(CCO)CC[C@H](CSc1ccccc1)Nc1ccc(S(=O)(=O)NC(=O)c2ccc(N3CCC([C@@H](O)c4ccccc4-c4ccc(Cl)cc4)CC3)cc2)cc1S(=O)(=O)C(F)(F)F [AZD4320] + Cn1cnc2c(F)c(Nc3ccc(Br)cc3Cl)c(C(=O)NOCCO)cc21 [Selumetinib] (first compound max 1 µM, 7x7, partner max 3 µM) | -0.0307 | 0.0771 | 0.0529 | -0.0204 | 0.0716 | 0.0556 | 0.0513 | -0.0084 | 0.0434 | 0.0113 | 0.0057 | 0.0763 | -0.0034 | -0.0209 | 0.0365 | 0.0167 | 0.935 | 1 | 0.776 | 0.588
4 | Cc1cc2ncnn2cc1Nc1ncc2c(n1)n(C1CCOCC1)c(=O)n2C [AZD7648] + C[C@@H]1COCCN1C2=NC(=NC(=C2)C3(CC3)[S@](=N)(=O)C)C4=C5C=CNC5=NC=C4 [AZD6738] (first compound max 10 µM, 7x7, partner max 10 µM) | 0.0469 | -0.002 | 0.0296 | 0.0381 | -0.0486 | 0.0801 | -0.0469 | 0.053 | -0.0956 | 0.0439 | -0.0068 | 0.0404 | 0.0717 | 0.0038 | 0.0427 | 0.0397 | 0.665 | 0.968 | 0.938 | 0.581
5 | CN(CCO)CC[C@H](CSc1ccccc1)Nc1ccc(S(=O)(=O)NC(=O)c2ccc(N3CCC([C@@H](O)c4ccccc4-c4ccc(Cl)cc4)CC3)cc2)cc1S(=O)(=O)C(F)(F)F [AZD4320] + C[C@@H](Nc1cc(F)cc(F)c1)c1cc(C(=O)N(C)C)cc2c(=O)cc(N3CCOCC3)oc12 [AZD8186] (first compound max 1 µM, 7x7, partner max 3 µM) | 0.0156 | -0.0137 | 0.0082 | 0.0214 | -0.0469 | 0.0462 | 0.0114 | 0.0323 | 0.0075 | 0.0014 | -0.0296 | 0.0605 | -0.086 | 0.0522 | -0.0129 | -0.0007 | 0.874 | 0.999 | 0.406 | 0.509
6 | Cc1cc2ncnn2cc1Nc1ncc2c(n1)n(C1CCOCC1)c(=O)n2C [AZD7648] + CCN(CCO)CCCOc1ccc2c(Nc3cc(CC(=O)Nc4cccc(F)c4)[nH]n3)ncnc2c1 [AZD2811] (first compound max 10 µM, 7x7, partner max 1 µM) | 0.0171 | -0.0485 | -0.0401 | -0.0011 | -0.0126 | 0.0723 | -0.0538 | -0.0061 | -0.0582 | -0.0649 | -0.0078 | 0.0387 | -0.027 | -0.033 | 0.009 | 0.0039 | 0.573 | 0.832 | 0.46 | 0.349
7 | C[C@@H](c1ccc2nccn2c1)n1nnc2ncc(-c3cnn(C)c3)nc21 [Savolitinib] + CC1(C)CCC(CN2CCN(c3ccc(C(=O)NS(=O)(=O)c4ccc(NCC5CCOCC5)c([N+](=O)[O-])c4)c(Oc4cnc5[nH]ccc5c4)c3)CC2)=C(c2ccc(Cl)cc2)C1 [Venetoclax] (first compound max 1 µM, 7x7, partner max 1 µM) | -0.0306 | -0.084 | -0.0398 | -0.0568 | -0.0676 | -0.0203 | 0.0246 | -0.0679 | -0.0492 | -0.0249 | -0.0339 | -0.0475 | 0.0069 | -0.0442 | 0.0879 | -0.0899 | 0.754 | 0.46 | 0.12 | 0.174
8 | COc1cc2c(cc1OCCCCCOc1cc3c(cc1OC)C(=O)N1C=C(C)C[C@H]1C=N3)N=C[C@@H]1CC(C)=CN1C2=O [SG3199] + O=C(c1cc(Cc2n[nH]c(=O)c3ccccc23)ccc1F)N1CCN(C(=O)C2CC2)CC1 [Olaparib] (first compound max 0.001 µM, 7x7, partner max 10 µM) | -0.0352 | -0.0495 | -0.0503 | -0.0176 | -0.0285 | -0.0209 | 0.0066 | -0.0709 | 0.0118 | -0.04 | -0.0361 | -0.0425 | -0.0081 | -0.0373 | 0.0061 | -0.0251 | 0.0845 | 0.436 | 0.0679 | 0.0833
9 | Cc1nc(Nc2ncc(C(=O)Nc3c(C)cccc3Cl)s2)cc(N2CCN(CCO)CC2)n1 [Dasatinib] + CC(=O)Nc1cccc(-n2c(=O)n(C3CC3)c(=O)c3c(Nc4ccc(I)cc4F)n(C)c(=O)c(C)c32)c1 [Trametinib] (first compound max 2 µM, 7x7, partner max 1 µM) | -0.0254 | 0.0171 | 0.0328 | 0.0361 | -0.137 | 0.101 | -0.128 | 0.0296 | -0.0835 | -0.0643 | -0.0081 | 0.0639 | -0.028 | -0.0618 | 0.0717 | -0.0009 | 0.69 | 0.799 | 0.558 | 0.774
10 | N#Cc1cnc(Nc2cc(NC[C@H]3CNCCO3)c(C(F)(F)F)cn2)cn1 [SRA737] + CCc1c2c(nc3ccc(O)cc13)-c1cc3c(c(=O)n1C2)COC(=O)[C@]3(O)CC [SN-38] (first compound max 10 µM, 7x7, partner max 0.3 µM) | 0.0615 | 0.0247 | 0.071 | 0.0144 | -0.13 | -0.0142 | -0.0337 | -0.0498 | -0.0363 | -0.0554 | -0.0338 | 0.0291 | 0.0034 | 0.0673 | 0.002 | -0.0193 | 0.835 | 1 | 0.763 | 0.992
11 | N#Cc1cnc(Nc2cc(NC[C@H]3CNCCO3)c(C(F)(F)F)cn2)cn1 [SRA737] + O=c1[nH]cc(F)c(=O)[nH]1 [5-Fluorouracil] (first compound max 10 µM, 7x7, partner max 20 µM) | 0.059 | 0.0272 | 0.0349 | -0.0291 | -0.148 | 0.0629 | 0.004 | -0.006 | 0.0056 | 0.002 | 0.0735 | 0.0604 | 0.0006 | -0.0266 | 0.013 | 0.0038 | 0.76 | 0.963 | 0.565 | 0.862
